Results on seven compounds are retold here after ChEMBL document CHEMBL5465560, “Selectivity Literature for EUbOPEN Chemogenomic Library” (2024).

Some results are limits rather than exact numbers.

Assay [1] concerns the target T1, Alpha-2C adrenergic receptor (Homo sapiens) (UniProt P18825).
T1 sequence (whole entry): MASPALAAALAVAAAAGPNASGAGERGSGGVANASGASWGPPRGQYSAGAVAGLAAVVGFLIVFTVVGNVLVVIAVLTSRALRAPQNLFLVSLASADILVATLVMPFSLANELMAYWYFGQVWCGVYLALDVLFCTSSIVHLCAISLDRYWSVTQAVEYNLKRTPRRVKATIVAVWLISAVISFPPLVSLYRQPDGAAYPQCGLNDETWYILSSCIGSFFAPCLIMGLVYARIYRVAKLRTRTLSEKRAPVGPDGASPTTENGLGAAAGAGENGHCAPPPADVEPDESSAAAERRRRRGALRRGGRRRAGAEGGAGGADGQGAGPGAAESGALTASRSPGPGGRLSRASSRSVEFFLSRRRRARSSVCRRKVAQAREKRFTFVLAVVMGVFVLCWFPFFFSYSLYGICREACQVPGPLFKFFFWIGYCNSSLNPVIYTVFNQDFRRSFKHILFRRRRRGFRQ
The assay can be described thus: Selectivity interaction (GPCR panel (PDSP screen)) EUB0001079a ADRA2C. The conditions noted are these: at 10 µM.

In assay [2] the target is Wee1-like protein kinase (Homo sapiens) (UniProt P30291). Nature of the assay: Selectivity interaction (KinomeScan (DiscoverX)) EUB0001049a WEE1. Particulars: at 1 µM.
The target in assay [3] is Serine/threonine-protein kinase VRK2 (Homo sapiens) (UniProt Q86Y07). The assay can be described thus: Selectivity interaction (KinomeScan (DiscoverX)) EUB0000655a VRK2. The conditions noted are these: at 10 µM.
Assay [4] concerns the target Histone-lysine N-methyltransferase KMT5B (Homo sapiens) (UniProt Q4FZB7). Nature of the assay: Selectivity interaction (Methyltransferase screen (radiometric assays, panel of 8 PRMTs, 21 protein lysine methyltransferases, 3 DNA methyltransferases, and one RNA methyltransferase)) EUB0000271b SUV420H1.
Assay [5] deals with Dual specificity protein kinase CLK2 (Homo sapiens, UniProt P49760). The assay can be described thus: Selectivity interaction (Kinase panel (Invitrogen)) EUB0000639a CLK2. Particulars: at 200 nM.
Assay [6] deals with Protein polybromo-1 (Homo sapiens) (UniProt Q86U86). Nature of the assay: Selectivity interaction (Human bromodomain panel (DSF assay)) EUB0000233b PBRM1.
The target in assay [7] is Ribosomal protein S6 kinase alpha-1 (Homo sapiens, UniProt Q15418). Nature of the assay: Selectivity interaction (KinomeScan (DiscoverX)) EUB0001619a RPS6KA1. Particulars: at 1 µM.
Assay [8] deals with T2, Tyrosine-protein kinase JAK3 (Homo sapiens) (UniProt P52333).
T2 sequence (whole entry): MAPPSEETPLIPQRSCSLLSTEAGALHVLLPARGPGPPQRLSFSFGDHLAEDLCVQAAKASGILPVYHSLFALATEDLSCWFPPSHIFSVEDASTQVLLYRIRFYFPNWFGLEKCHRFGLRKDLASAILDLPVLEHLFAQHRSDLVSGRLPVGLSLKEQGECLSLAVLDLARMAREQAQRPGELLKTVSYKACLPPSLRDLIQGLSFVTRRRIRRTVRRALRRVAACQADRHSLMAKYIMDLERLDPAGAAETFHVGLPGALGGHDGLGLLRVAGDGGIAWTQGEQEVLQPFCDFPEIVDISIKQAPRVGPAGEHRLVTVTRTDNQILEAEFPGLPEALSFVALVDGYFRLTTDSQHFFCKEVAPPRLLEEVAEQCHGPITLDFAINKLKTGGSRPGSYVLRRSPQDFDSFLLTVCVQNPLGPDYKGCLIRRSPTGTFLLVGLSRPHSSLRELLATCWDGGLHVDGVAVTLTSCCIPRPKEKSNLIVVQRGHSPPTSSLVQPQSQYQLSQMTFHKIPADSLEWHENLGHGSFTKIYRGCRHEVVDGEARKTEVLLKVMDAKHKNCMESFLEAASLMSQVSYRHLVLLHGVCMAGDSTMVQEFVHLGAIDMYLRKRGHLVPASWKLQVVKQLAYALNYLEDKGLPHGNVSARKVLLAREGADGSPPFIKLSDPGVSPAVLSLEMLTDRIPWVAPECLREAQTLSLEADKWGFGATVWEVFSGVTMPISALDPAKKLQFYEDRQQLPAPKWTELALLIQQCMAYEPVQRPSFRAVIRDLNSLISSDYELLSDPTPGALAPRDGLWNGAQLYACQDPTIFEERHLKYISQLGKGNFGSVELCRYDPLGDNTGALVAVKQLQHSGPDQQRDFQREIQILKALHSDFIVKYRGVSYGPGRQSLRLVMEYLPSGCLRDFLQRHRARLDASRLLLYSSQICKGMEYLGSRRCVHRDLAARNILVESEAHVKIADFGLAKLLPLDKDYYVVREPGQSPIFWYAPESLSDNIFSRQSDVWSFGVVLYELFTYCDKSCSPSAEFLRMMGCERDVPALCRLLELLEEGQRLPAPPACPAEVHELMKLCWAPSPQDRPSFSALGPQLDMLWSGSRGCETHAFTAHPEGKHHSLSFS
Nature of the assay: Selectivity interaction (KinomeScan (DiscoverX)) EUB0001619a JAK3. The conditions noted are these: at 1 µM.

The target in assay [9] is 5'-AMP-activated protein kinase catalytic subunit alpha-2 (Homo sapiens) (UniProt P54646). Nature of the assay: Selectivity interaction (ActivX KiNativ screen (ex vivo kinase selectivity in human PBMCs)) EUB0001619a PRKAA2. It counts as cell-based. The conditions noted are these: PBMC, at 1 µM.
Assay [10] concerns the target T3, Homeodomain-interacting protein kinase 4 (Homo sapiens) (UniProt Q8NE63).
T3 sequence (whole entry): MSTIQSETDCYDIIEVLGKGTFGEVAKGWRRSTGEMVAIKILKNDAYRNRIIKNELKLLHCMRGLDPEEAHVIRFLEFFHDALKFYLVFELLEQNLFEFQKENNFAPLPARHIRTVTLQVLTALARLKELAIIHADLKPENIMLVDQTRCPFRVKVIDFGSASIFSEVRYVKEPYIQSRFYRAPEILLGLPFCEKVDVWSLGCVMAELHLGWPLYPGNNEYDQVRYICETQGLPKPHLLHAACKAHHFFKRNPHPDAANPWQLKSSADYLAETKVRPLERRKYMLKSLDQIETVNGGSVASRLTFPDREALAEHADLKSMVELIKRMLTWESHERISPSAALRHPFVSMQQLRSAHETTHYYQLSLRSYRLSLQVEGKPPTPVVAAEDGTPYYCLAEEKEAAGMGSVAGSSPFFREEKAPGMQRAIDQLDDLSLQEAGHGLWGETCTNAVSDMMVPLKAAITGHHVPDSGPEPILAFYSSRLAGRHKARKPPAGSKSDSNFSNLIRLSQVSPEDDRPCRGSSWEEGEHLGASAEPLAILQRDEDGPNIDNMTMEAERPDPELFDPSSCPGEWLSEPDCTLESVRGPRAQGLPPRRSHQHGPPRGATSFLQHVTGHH
Nature of the assay: Selectivity interaction (KinomeScan (DiscoverX)) EUB0001619a HIPK4. Particulars: at 1 µM.

Chain of Histone-lysine N-methyltransferase KMT5B (Homo sapiens) (Q4FZB7 whole entry, looked up): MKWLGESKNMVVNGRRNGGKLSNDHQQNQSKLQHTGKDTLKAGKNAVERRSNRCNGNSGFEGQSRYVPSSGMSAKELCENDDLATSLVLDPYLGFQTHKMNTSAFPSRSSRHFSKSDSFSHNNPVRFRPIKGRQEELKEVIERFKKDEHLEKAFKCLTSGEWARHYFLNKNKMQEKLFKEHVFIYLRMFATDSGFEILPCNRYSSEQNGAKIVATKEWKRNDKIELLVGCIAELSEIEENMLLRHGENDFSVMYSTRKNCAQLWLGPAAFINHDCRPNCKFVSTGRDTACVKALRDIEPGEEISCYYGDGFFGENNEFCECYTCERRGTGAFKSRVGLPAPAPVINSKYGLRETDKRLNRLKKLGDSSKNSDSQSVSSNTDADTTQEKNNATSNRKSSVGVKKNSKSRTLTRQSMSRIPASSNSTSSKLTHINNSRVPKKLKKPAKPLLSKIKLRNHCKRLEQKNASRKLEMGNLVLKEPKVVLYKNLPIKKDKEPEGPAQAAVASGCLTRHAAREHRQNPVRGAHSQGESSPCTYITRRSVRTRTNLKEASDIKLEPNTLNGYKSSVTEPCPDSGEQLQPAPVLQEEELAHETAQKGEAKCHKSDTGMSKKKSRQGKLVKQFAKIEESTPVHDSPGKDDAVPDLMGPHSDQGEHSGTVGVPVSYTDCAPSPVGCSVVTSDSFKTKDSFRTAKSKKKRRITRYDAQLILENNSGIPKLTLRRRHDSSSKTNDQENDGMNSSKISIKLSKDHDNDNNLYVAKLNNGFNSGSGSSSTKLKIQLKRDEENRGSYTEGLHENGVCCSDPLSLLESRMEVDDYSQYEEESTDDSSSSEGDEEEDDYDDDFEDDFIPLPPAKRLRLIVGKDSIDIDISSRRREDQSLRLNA
Chain of Serine/threonine-protein kinase VRK2 (Homo sapiens) (Q86Y07 whole entry): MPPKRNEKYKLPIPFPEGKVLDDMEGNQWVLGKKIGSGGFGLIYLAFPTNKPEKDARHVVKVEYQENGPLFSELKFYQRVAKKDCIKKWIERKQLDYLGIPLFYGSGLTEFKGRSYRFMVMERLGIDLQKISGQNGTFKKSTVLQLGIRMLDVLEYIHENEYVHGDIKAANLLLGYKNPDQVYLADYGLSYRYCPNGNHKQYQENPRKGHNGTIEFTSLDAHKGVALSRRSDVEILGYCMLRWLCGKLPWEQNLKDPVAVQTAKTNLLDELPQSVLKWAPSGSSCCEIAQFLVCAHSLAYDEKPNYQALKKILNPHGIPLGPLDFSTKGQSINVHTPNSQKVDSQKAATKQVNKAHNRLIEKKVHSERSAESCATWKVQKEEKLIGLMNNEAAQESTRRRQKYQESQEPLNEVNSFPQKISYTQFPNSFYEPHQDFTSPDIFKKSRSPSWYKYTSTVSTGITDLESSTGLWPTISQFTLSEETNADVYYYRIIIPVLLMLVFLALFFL
Chain of Protein polybromo-1 (Homo sapiens) (Q86U86 whole entry): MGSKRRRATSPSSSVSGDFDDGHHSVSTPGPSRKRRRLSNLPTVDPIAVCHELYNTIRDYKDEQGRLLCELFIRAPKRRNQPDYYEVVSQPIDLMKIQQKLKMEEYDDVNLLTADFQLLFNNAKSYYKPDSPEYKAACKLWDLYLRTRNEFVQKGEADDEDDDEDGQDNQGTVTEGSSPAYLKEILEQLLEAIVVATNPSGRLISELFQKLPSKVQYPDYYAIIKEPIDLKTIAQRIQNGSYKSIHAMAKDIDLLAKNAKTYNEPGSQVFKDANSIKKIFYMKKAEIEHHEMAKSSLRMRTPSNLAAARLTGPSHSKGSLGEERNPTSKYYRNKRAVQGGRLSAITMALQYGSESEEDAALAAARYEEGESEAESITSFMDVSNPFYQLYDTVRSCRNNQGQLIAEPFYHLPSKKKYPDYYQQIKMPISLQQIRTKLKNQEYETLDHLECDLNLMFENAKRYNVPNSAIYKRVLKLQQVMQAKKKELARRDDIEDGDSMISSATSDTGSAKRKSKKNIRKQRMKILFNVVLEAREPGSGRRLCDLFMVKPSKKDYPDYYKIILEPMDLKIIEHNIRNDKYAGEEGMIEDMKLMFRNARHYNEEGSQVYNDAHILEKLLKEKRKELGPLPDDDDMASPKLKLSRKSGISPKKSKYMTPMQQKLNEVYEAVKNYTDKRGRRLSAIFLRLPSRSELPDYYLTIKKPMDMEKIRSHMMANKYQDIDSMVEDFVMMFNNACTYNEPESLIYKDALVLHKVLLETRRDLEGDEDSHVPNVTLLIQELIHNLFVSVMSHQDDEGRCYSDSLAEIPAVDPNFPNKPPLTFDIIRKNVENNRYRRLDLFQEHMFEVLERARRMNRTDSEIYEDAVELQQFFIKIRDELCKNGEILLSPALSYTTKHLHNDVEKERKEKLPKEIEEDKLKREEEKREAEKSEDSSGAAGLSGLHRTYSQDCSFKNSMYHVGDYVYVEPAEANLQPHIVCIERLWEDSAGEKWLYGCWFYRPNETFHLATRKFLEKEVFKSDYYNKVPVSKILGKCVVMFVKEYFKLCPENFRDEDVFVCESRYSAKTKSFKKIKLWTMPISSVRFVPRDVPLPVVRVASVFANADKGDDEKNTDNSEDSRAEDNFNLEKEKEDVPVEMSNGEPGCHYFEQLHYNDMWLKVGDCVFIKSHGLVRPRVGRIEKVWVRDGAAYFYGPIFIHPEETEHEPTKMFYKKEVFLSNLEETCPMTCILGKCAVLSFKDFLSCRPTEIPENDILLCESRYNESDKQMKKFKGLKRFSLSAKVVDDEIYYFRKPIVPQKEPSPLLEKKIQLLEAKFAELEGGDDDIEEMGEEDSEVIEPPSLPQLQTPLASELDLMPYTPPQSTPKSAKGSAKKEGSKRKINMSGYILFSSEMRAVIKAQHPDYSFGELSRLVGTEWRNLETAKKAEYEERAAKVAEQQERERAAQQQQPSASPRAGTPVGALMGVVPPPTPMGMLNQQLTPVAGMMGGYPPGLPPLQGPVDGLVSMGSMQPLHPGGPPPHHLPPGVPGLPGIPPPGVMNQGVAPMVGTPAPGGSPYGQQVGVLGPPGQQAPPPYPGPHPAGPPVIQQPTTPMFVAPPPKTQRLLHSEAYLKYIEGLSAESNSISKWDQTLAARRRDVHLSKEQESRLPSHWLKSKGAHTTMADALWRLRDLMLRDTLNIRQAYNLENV
Chain of 5'-AMP-activated protein kinase catalytic subunit alpha-2 (Homo sapiens) (P54646 whole entry, looked up): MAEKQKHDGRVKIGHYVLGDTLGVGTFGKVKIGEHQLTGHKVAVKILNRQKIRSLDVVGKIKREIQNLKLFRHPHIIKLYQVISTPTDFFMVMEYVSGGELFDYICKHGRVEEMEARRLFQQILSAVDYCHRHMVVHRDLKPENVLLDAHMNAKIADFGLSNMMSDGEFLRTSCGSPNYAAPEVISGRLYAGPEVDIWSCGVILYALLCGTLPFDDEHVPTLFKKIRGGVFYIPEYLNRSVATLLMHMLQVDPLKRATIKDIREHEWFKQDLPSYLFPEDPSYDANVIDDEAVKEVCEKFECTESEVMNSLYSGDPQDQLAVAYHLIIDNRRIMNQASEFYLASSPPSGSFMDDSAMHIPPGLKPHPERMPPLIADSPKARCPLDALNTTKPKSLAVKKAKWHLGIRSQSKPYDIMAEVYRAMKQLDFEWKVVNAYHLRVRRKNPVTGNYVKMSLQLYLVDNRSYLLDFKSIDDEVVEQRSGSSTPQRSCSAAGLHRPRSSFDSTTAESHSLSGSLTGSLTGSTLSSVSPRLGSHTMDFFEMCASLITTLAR
Chain of Ribosomal protein S6 kinase alpha-1 (Q15418 whole entry): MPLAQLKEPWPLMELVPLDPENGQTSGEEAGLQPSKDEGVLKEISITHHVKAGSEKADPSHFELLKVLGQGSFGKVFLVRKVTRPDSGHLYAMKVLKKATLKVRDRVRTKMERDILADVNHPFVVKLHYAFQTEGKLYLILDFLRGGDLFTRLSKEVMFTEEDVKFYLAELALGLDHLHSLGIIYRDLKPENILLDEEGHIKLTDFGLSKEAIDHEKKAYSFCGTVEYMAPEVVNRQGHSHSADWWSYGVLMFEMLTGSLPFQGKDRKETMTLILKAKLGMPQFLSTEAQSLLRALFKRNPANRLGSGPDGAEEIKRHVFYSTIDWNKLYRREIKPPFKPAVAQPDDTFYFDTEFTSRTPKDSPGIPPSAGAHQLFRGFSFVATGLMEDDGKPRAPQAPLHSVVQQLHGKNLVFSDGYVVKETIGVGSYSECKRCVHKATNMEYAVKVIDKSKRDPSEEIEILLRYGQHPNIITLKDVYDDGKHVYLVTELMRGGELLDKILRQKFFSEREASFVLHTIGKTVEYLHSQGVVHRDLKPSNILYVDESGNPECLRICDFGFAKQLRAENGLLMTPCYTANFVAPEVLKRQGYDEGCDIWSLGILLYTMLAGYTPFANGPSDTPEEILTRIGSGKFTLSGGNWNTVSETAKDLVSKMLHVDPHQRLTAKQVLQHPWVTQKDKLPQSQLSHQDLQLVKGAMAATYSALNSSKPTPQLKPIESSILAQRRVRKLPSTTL
Chain of Dual specificity protein kinase CLK2 (P49760 whole entry, looked up): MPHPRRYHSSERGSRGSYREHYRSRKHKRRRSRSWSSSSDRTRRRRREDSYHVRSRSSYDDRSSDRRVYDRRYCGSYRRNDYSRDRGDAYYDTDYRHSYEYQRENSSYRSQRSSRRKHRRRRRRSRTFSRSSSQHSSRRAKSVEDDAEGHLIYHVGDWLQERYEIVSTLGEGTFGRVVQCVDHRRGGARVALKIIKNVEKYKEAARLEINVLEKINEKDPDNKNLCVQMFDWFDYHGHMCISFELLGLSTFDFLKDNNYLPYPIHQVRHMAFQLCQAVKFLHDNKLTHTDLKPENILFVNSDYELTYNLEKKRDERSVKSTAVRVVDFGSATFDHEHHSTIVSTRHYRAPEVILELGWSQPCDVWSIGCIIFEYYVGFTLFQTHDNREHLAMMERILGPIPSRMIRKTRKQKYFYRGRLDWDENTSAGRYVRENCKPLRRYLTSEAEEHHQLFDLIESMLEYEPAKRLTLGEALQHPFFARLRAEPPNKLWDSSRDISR

As to `Nc1cnc(N2CCc3cc(S(=O)(=O)Nc4c(F)cc(Cl)cc4F)cc(N4CCCC4=O)c32)nc1` [TP-020n], in assay [1], the % of inhibition was -14.3%. For `COc1cc(Nc2nc(C)cc(-c3cnn4nc(OC)ccc34)n2)cc(C(F)(F)F)c1`, in assay [2], the % of control amounted to 95%. As for `CN(C)CCOc1ccc(-c2nc(-c3ccncc3)c(-c3ccc4c(c3)CC/C4=N\O)[nH]2)cc1`, in assay [3], the % of control was 94%.

With `Cc1cc(C)cc([C@@H]2c3cc(C)ccc3NC(=O)CN2C(=O)c2ccc(Br)s2)c1`, the results for the % of activity in [4] (at 1 µM) and in [4] (at 10 µM) were 103% and 101%, respectively. `CC[C@@H]1[C@H](F)C(=O)N[C@@H]1COc1nccc2cc(C(N)=O)c(OC)cc12` [ZIMLOVISERTIB]: the % of inhibition in assay [5] was 14.8%. The compound `CN(C)CCCOc1ccc(-c2cc(NCCCn3cccn3)nc(S(C)(=O)=O)n2)cc1` yielded a dTM in assay [6] below 2 K.

Take `N#Cc1cccc(-c2c[nH]c3ncnc(N4CCOCC4)c23)c1`: the % of control is 27% in assay [7], 2.7% in [8] and 100% in [10]. For the same compound, the % of inhibition in [9] turned out to be 33%.
